For 13 compounds, IC50 and Emax results are on record in patent US8278469B2, “17-hydroxy-17-pentafluoroethyl-estra-4,9(10)-dien-11-aryl derivatives, method of production thereof and use thereof for the treatment of diseases” (Bayer Pharma Aktiengesellschaft, priority 2009, dated 2012).

Where two headings read alike, the source gives them in different places.

For assay [1], the target named is T1, human progesterone receptor A (PR-A) (Homo sapiens, UniProt P06401).
T1 construct: expressed in transfected cells; host or cells: SK-N-MC human neuroblastoma cells, stably transfected with pRChPR-A-neo and pMMTV-LUC
T1 sequence (P06401 1-769 isoform P06401-2): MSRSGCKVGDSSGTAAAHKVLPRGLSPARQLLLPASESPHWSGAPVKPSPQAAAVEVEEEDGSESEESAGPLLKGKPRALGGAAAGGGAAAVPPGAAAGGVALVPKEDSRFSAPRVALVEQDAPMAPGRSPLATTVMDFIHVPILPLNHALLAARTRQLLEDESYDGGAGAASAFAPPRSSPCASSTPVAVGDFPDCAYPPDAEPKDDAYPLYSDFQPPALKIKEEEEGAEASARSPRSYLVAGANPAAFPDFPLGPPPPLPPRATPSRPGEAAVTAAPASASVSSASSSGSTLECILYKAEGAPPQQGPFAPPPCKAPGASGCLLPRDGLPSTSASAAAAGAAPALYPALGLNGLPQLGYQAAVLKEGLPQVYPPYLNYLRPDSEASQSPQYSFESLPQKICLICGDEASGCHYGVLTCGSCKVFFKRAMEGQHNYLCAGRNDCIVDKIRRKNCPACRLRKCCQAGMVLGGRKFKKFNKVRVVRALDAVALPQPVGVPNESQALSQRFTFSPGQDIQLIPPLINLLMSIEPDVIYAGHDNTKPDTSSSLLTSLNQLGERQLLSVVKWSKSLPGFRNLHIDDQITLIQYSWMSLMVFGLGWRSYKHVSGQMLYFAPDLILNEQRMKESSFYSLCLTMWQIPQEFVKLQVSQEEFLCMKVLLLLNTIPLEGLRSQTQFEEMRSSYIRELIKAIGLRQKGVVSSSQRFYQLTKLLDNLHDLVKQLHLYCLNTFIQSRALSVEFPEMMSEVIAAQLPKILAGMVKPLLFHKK
Put plainly: Progesterone receptor-antagonistic action in stable transfectants of SK-N-MC cells with human PR-A and MTV-LUC reporter. The format is cell-based. To be noted: for Emax: read-out: Progesterone receptor A (PR-A) Efficacy. On the procedure:
(§1) Progesterone Receptor-Antagonistic Action in Stable Transfectants of Human Neuroblastoma Cells (SK-N-MC Cells) with the Human Progesterone A or Progesterone B Receptor and an MTV-LUC Reporter Construct
(§2) SK-N-MC cells (human neuroblastoma cells), which have been stably transfected with plasmids, which express the human progesterone receptor B (pRChPR-B-neo) or the human progesterone receptor A (pRChPR-A-neo) and a reporter construct (pMMTV-LUC), were incubated for 24 hours either in the absence (negative control) or in the presence of increasing amounts of the respective test compound (0.01 nmol/l, 0.1 nmol/l, 1 nmol/l, 10 nmol/l, 100 nmol/l and 1 μmol/l), in order to determine the agonistic efficacy. As positive control of reporter gene induction, the cells were treated with the synthetic gestagen promegestone (0.01 nmol/l, 0.1 nmol/l, 1 nmol/l, 10 nmol/l, 100 nmol/l and 1 μmol/l). For determination of the antagonistic activity, the cells were treated with 0.1 nmol/l promegestone and additionally with increasing amounts of the respective test compound (0.01 nmol/l, 0.1 nmol/l, 1 nmol/l, 10 nmol/l, 100 nmol/l and 1 μmol/l). The activity of the LUC reporter gene (LUC=luciferase) was determined in the cell lysates and was measured as RLU (relative light units). All measured values are given as percentage efficacy and as EC50 or IC50 concentrations.
(§3) 11β-(4-Acetylphenyl)-20,20,21,21,21-pentafluoro-17-hydroxy-19-nor-17α-pregna-4,9-dien-3-one and 20,20,21,21,21-pentafluoro-17-hydroxy-11β-[4-(hydroxyacetyl)phenyl]-19-nor-17α-pregna-4,9-dien-3-one, very potent and therefore preferred examples from WO98/34947 and WO2008/058767, were tested as comparative compounds along with the test compound.

Assay [2] addresses T2, human progesterone receptor B (PR-B) (Homo sapiens, UniProt P06401).
T2 construct: expressed in transfected cells; host or cells: SK-N-MC human neuroblastoma cells, stably transfected with pRChPR-B-neo and pMMTV-LUC
T2 sequence (P06401 1-933): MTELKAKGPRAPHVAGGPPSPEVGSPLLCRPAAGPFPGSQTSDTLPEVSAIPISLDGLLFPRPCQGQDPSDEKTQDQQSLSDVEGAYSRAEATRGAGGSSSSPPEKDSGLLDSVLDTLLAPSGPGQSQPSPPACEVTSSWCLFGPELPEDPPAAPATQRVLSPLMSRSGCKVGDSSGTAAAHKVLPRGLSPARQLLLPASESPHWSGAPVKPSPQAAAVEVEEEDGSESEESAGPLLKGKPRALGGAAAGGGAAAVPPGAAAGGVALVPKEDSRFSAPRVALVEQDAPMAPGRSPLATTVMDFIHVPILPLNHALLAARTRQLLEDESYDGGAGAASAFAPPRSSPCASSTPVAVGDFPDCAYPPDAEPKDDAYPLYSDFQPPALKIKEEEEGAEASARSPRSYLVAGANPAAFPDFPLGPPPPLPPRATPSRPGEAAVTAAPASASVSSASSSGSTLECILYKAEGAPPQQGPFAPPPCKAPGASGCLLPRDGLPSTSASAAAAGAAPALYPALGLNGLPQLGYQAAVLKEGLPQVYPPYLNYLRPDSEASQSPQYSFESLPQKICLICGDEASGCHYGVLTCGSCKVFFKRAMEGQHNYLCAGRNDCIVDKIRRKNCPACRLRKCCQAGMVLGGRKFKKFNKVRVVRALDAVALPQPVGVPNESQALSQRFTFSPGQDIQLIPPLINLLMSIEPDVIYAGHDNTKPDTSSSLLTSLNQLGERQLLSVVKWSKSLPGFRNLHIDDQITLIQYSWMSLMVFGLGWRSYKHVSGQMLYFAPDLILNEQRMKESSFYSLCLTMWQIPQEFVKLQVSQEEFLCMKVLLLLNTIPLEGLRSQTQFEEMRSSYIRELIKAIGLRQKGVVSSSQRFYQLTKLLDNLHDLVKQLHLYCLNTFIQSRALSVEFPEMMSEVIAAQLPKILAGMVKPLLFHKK
Put plainly: Progesterone receptor-antagonistic action in stable transfectants of SK-N-MC cells with human PR-B and MTV-LUC reporter. It counts as cell-based. To be noted: for Emax: read-out: Progesterone receptor B (PR-B) Efficacy. The method, then: as §1, §2, §3

The mark [3] stands for this setting: antagonistic activity against 0.1 nmol/l promegestone, SK-N-MC cells, 24 hours, LUC reporter, read-out: Progesterone receptor A (PR-A) Potency IC50.
Where [4] appears, read: antagonistic efficacy against 0.1 nmol/l promegestone, SK-N-MC cells, 24 hours.
The mark [5] stands for this setting: antagonistic activity against 0.1 nmol/l promegestone, SK-N-MC cells, 24 hours, LUC reporter, read-out: Progesterone receptor B (PR-B) Potency IC50.

One may read the IC50 as the midpoint of a concentration-inhibition curve. As to `C[C@]12C[C@H](c3ccc(-c4ccc(S)cc4)cc3)C3=C4CCC(=O)C=C4CC[C@H]3[C@@H]1CC[C@@]2(O)C(F)(F)C(F)(F)F` [Example 13, (11β,17β)-17-hydroxy-17-(pentafluoroethyl)-11-(4′-sulphanylbiphenyl-4-yl)estra-4,9-dien-3-one], the IC50 in assay [1] (setting [3]) and in assay [2] (setting [5]) was 0.072 nM throughout. Besides, the Emax in assay [1] (setting [4]) and in assay [2] (setting [4]) was 100% each time.

For the compound `CN(C)S(=O)(=O)c1ccc([C@H]2C[C@@]3(C)[C@@H](CC[C@@]3(O)C(F)(F)C(F)(F)F)[C@@H]3CCC4=CC(=O)CCC4=C32)cc1` [Example 15, 4-[(11β,17β)-17-Hydroxy-3-oxo-17-(pentafluoroethyl)estra-4,9-dien-11-yl]-N,N-dimethylbenzene sulphonamide], the Emax in assay [1] (setting [4]) and in assay [2] (setting [4]) was 100% in each case.

In the case of `CSc1ccc([C@H]2C[C@@]3(C)[C@@H](CC[C@@]3(O)C(F)(F)C(F)(F)F)[C@@H]3CCC4=CC(=O)CCC4=C32)cc1` [Example 1, (11β,17β)-17-hydroxy-11-[4-(methylsulphanyl)phenyl]-17-(pentafluoroethyl)estra-4,9-dien-3-one], the Emax in assay [1] (SK-N-MC, 24 h) came to 100%; in assay [2] (SK-N-MC, 24 h), 100%. Besides, in assay [2] (setting [5]), the IC50 is 0.012 nM.

Turning to `C[C@]12C[C@H](c3ccc(S(C)(=N)=O)cc3)C3=C4CCC(=O)C=C4CCC3C1CC[C@@]2(O)C(F)(F)C(F)(F)F` (stereo partly drawn) [Example 8, (11β,17β)-17-Hydroxy-11-[4-(RS-methylsulphonimidoyl)phenyl]-17-(pentafluoroethyl)estra-4,9-dien-3-one], the Emax amounted to 100% in assay [1] (SK-N-MC, 24 h) and 100% in assay [2] (SK-N-MC, 24 h). Further, the IC50 in assay [1] (setting [3]) and in assay [2] (setting [5]) was 0.9 nM each time.

In the case of `CCS(=O)(=O)c1ccc([C@H]2C[C@@]3(C)C(CC[C@@]3(O)C(F)(F)C(F)(F)F)C3CCC4=CC(=O)CCC4=C32)cc1` (stereo partly drawn) [Example 5, (11β,17β)-11-[4-(ethylsulphonyl)phenyl]-17-hydroxy-17-(pentafluoroethyl)estra-4,9-dien-3-one], the IC50 in assay [1] (setting [3]) came out at 0.1 nM; in assay [2] (setting [5]) it was 0.09 nM. The Emax in assay [1] (setting [4]) and in assay [2] (setting [4]) was 100% each time.

Regarding `C[C@]12C[C@H](c3ccc(SCc4ccccc4)cc3)C3=C4CCC(=O)C=C4CCC3C1CC[C@@]2(O)C(F)(F)C(F)(F)F` (stereo partly drawn) [Example 6, (11β,17β)-11-[4-(benzylsulphanyl)phenyl]-17-hydroxy-17-(pentafluoroethyl)estra-4,9-dien-3-one], the IC50 in assay [1] (setting [3]) came out at 0.2 nM; in assay [2] (setting [5]), 0.23 nM. Besides, the Emax in assay [1] (setting [4]) and in assay [2] (setting [4]) was 100% each time.

Turning to `C[C@]12C[C@H](c3ccc(-c4ccc(S(C)(=N)=O)cc4)cc3)C3=C4CCC(=O)C=C4CCC3C1CC[C@@]2(O)C(F)(F)C(F)(F)F` (stereo partly drawn) [Example 12, (11β,17β)-17-hydroxy-11-[4′-(RS-methylsulphonimidoyl)biphenyl-4-yl]-17-(pentafluoroethyl)estra-4,9-dien-3-one], the IC50 in assay [1] (setting [3]) and in assay [2] (setting [5]) was 0.08 nM each time. Moreover, the Emax in assay [1] (setting [4]) and in assay [2] (setting [4]) was 100% throughout.

Take `CCSc1ccc([C@H]2C[C@@]3(C)C(CC[C@@]3(O)C(F)(F)C(F)(F)F)C3CCC4=CC(=O)CCC4=C32)cc1` (stereo partly drawn) [Example 2, (11β,17β)-11-[4-(ethylsulphanyl)phenyl]-17-hydroxy-17-(pentafluoroethyl)estra-4,9-dien-3-one]: the Emax in assay [1] (setting [4]) and in assay [2] (setting [4]) was 100% throughout.

For `C[C@]12C[C@H](c3ccc(C(=O)CO)cc3)C3=C4CCC(=O)C=C4CC[C@H]3[C@@H]1CC[C@@]2(O)C(F)(F)C(F)(F)F` [20,20,21,21,21-pentafluoro-17-hydroxy-11β-[4-(hydroxyacetyl)phenyl]-19-nor-17α-pregna-4,9-dien-3-one, reference compound], the Emax is 100% in assay [1] (SK-N-MC, 24 h) and 100% in assay [2] (SK-N-MC, 24 h).

`CSc1ccc(-c2ccc([C@H]3C[C@@]4(C)[C@@H](CC[C@@]4(O)C(F)(F)C(F)(F)F)[C@@H]4CCC5=CC(=O)CCC5=C43)cc2)cc1` [Example 9, (11β,17β)-17-Hydroxy-11-[4′-(methylsulphanyl)biphenyl-4-yl]-17-(pentafluoroethyl)estra-4,9-dien-3-one]: the Emax in assay [1] (setting [4]) and in assay [2] (setting [4]) was 100% each time.

For the compound `CN(C)S(=O)(=O)c1ccc(-c2ccc([C@H]3C[C@@]4(C)[C@@H](CC[C@@]4(O)C(F)(F)C(F)(F)F)[C@@H]4CCC5=CC(=O)CCC5=C43)cc2)cc1` [Example 14, 4′-[(11β,17β)-17-hydroxy-3-oxo-17-(pentafluoroethyl)estra-4,9-dien-11-yl]-N,N-dimethylbiphenyl-4-sulphonamide], the Emax in assay [1] (setting [4]) and in assay [2] (setting [4]) was 100% each time.

Regarding `CC(=O)c1ccc(C2CC3(C)C(CCC3(O)C(F)(F)C(F)(F)F)C3CCC4=CC(=O)CCC4=C23)cc1` (stereo not drawn) [11β-(4-Acetylphenyl)-20,20,21,21,21-pentafluoro-17-hydroxy-19-nor-17α-pregna-4,9-dien-3-one, reference compound], the Emax in assay [1] (setting [4]) and in assay [2] (setting [4]) was 100% in each case.

For the compound `Cc1ccc(S(=O)(=O)N=S(C)(=O)c2ccc([C@H]3C[C@@]4(C)C(CC[C@@]4(O)C(F)(F)C(F)(F)F)C4CCC5=CC(=O)CCC5=C43)cc2)cc1` (mixture of isomers) [Example 7, N-[{4-[(11β,17β)-17-hydroxy-3-oxo-17-(pentafluoroethyl)estra-4,9-dien-11-yl]phenyl}(RS)(methyl)oxido-λ^6-sulphanylidene]-4-methylbenzene sulphonamide], the IC50 stood at 1 nM in assay [1] and 0.8 nM in assay [2]. Further, the Emax in assay [1] (setting [4]) and in assay [2] (setting [4]) was 100% in each case.
